According to ChEMBL document CHEMBL1158802, “Bioactive constituents of the leaves of Phyllanthus polyphyllus var. siamensis” (J Nat Prod, 2005):
Values after ≈ are worked out from the molar mass of the structure shown. Active and inactive are the calls of the source. The rule behind the calls is not given here.

Legend:
KB = experiment: Cytotoxicity against human KB cells by colorimetric method; assay type: functional, cell-based
[1] = Cytotoxicity against human BC cells by colorimetric method; assay type: functional, cell-based
NCI-H187 = experiment: Cytotoxicity against human NCI-H187 cells by colorimetric method; assay type: functional, cell-based
Vero = experiment: Cytotoxicity against african green monkey Vero cells by colorimetric method; assay type: cell-based; settings: Chlorocebus sabaeus

SMILES | IC50 (KB) | IC50 [1] | IC50 (NCI-H187) | Activity (KB) | Activity (NCI-H187) | IC50 (Vero)
OC[C@H](Cc1ccc2c(c1)OCO2)[C@H](CO)Cc1ccc2c(c1)OCO2 [DIHYDROCUBEBIN] | > 5 µg/mL | > 5 µg/mL | > 5 µg/mL | – | – | –
O=C1C=C2C=C[C@@H](O)C[C@H]2O1 [MENISDAURILIDE] | > 5 µg/mL | > 5 µg/mL | > 5 µg/mL | – | – | –
CC(=O)O[C@H]1CO[C@@H](O[C@H]2CC[C@@]3(C)[C@@H](CC[C@]4(C)[C@@H]3CC=C3[C@@H]5CC(C)(C)CC[C@]5(C(=O)O)CC[C@]34C)[C@]2(C)CO)[C@H](O)[C@H]1O | – | 3.6 µg/mL (≈ 5.57 µM) | – | inactive | inactive | 10.7 µg/mL (≈ 16.5 µM)
CC(=O)O[C@H]1[C@H](O[C@H]2CC[C@@]3(C)[C@@H](CC[C@]4(C)[C@@H]3CC=C3[C@@H]5CC(C)(C)CC[C@]5(C(=O)O)CC[C@]34C)[C@]2(C)CO)OC[C@H](O)[C@@H]1O | – | – | – | – | inactive | –
COc1cc(C[C@@H](CO)[C@H](CO)Cc2ccc(O)c(OC)c2)ccc1O [(+)-SECOISOLARICIRESINOL] | > 5 µg/mL | > 5 µg/mL | > 5 µg/mL | – | – | –
CC(=O)O[C@@H]1[C@@H](OC(C)=O)[C@H](O[C@H]2CC[C@]3(C)[C@H]4CC=C5[C@@H]6CC(C)(C)CC[C@]6(C(=O)O)CC[C@@]5(C)[C@]4(C)CC[C@H]3C2(C)C)OC[C@@H]1OC(C)=O | – | 3.3 µg/mL (≈ 4.62 µM) | – | inactive | inactive | 3.2 µg/mL (≈ 4.48 µM)
CC(=O)O[C@@H]1[C@@H](O)[C@H](O[C@H]2CC[C@@]3(C)[C@@H](CC[C@]4(C)[C@@H]3CC=C3[C@@H]5CC(C)(C)CC[C@]5(C(=O)O)CC[C@]34C)[C@]2(C)CO)OC[C@@H]1O | – | – | – | inactive | inactive | –
CC(=O)OC[C@@]1(C)[C@@H]2CC[C@]3(C)[C@H](CC=C4[C@@H]5CC(C)(C)CC[C@]5(C(=O)O)CC[C@]43C)[C@@]2(C)CC[C@@H]1O[C@@H]1OC[C@H](OC(C)=O)[C@H](OC(C)=O)[C@H]1OC(C)=O | 3.7 µg/mL (≈ 4.79 µM) | 3.6 µg/mL (≈ 4.66 µM) | 2.2 µg/mL (≈ 2.85 µM) | – | – | –
CC1(C)CC[C@]2(C(=O)O)CC[C@]3(C)C(=CC[C@@H]4[C@@]5(C)CC[C@H](O[C@@H]6OC[C@H](O)[C@H](O)[C@H]6O)C(C)(C)[C@@H]5CC[C@]43C)[C@@H]2C1 | – | 1.7 µg/mL (≈ 2.89 µM) | 3.2 µg/mL (≈ 5.43 µM) | inactive | – | 2.8 µg/mL (≈ 4.76 µM)
CC1(C)CC[C@]2(C(=O)O)CC[C@]3(C)C(=CC[C@@H]4[C@@]5(C)CC[C@H](O)[C@@](C)(CO)[C@@H]5CC[C@]43C)[C@@H]2C1 [HEDERAGENIN] | > 5 µg/mL | > 5 µg/mL | > 5 µg/mL | – | – | –
Cc1c2ccncc2c(C)c2c1[nH]c1ccccc12 [ELLIPTECINE] | 0.26 µg/mL (≈ 1.06 µM) | 0.36 µg/mL (≈ 1.46 µM) | 0.32 µg/mL (≈ 1.3 µM) | – | – | –
CC1(C)CC[C@]2(C(=O)O)CC[C@]3(C)C(=CC[C@@H]4[C@@]5(C)CC[C@H](O[C@@H]6OC[C@H](O)[C@H](O)[C@H]6O)[C@@](C)(CO)[C@@H]5CC[C@]43C)[C@@H]2C1 | – | – | – | inactive | inactive | –
